These results are taken from PubChem BioAssay AID456 (Sanford-Burnham Center for Chemical Genomics, 2006).

As usually defined, the IC50 is the concentration at which inhibition is half-maximal.

For this assay, the system named is HUVEC TNFa-induced VCAM-1 surface expression, immunofluorescence imaging. The assay can be described thus: inhibitors of TNFa-induced VCAM-1 surface display, imaging, high-content imaging, pooled HUVEC, TNFa stimulus (AID 456).
In the case of `O=S1(=O)C=C(Sc2nc3ccccc3s2)c2ccccc21`, the IC50 was 2.35 µM.

As to `Oc1ccc(Nc2nc(-c3ccc(O)cc3)cs2)cc1`, the IC50 is 11.6 µM. `CN(C)CCCN1c2ccccc2CCc2ccc(Cl)cc21`: the IC50 is 10.2 µM. The figure for `CCN1C(=O)c2cccc3c(NC(=O)c4ccc(S(=O)(=O)N(C)C)cc4)ccc1c23` is 12.1 µM; for `O=C1CCn2nc(-c3ccc(Cl)cc3)cc2N1` it is 12.3 µM. `CCOC(=O)c1ccc(N=c2sc(C(=O)OC)cc(=O)n2Cc2ccco2)cc1`: the IC50 was 4.92 µM. The figure for `CC(C)C[C@H]1C(=O)N2CCC[C@H]2[C@]2(O)O[C@](NC(=O)[C@@H]3C=C4c5cccc6[nH]c(Br)c(c56)CC4N(C)C3)(C(C)C)C(=O)N12` (some centres not stated) is 11 µM; for `S=C(NCC1CCCO1)n1nnc2ccccc21` (configuration not stated) it is 8.83 µM. As to `CS(=O)(=O)c1ncc(Cl)c(C(=O)Nc2ccc(N3CCOCC3)cc2)n1`, the IC50 is 6.5 µM. Next, `O=C(Cn1nc(-c2ccc(Cl)cc2)ccc1=O)NCCCN1CCN(Cc2ccccc2)CC1`: 16.9 µM; `Cc1oc(-c2cccc(Cl)c2)nc1CN1CCC(C(=O)N2CCN(c3ccccc3F)CC2)CC1`: 8.7 µM. Take `CN(C)CCCN1c2ccccc2Sc2ccc(Cl)cc21`: the IC50 was 8.47 µM. Next, `N#Cc1cc2sc3nnc(-c4ccncc4)n3c2cc1C#N`: 13.7 µM.

Turning to `C/C=C(\CS(=O)(=O)c1ccccc1)S(=O)(=O)c1ccccc1`, the IC50 is 6.39 µM. On to `Clc1ccc(OCc2nnc(SCCN3CCCCC3)n2Cc2ccco2)cc1`, for which the concentration for half-maximal inhibition (IC50) is 13.9 µM. For the compound `C=CS(=O)(=O)c1ccc(Oc2ccc(S(=O)(=O)C=C)cc2)cc1`, the IC50 is 1.2 µM. The figure for `Cc1nc2sccn2c(=O)c1CCN1CCC(=C(c2ccccc2)c2ccc(F)cc2)CC1` is 11.5 µM.
